Source: patent publication US10765674B2, “Prevention of HIV-infection” (Janssen Sciences Ireland Unlimited Company, priority 2005, dated 2020)
Where two headings read alike, the source gives them in different places.

Assay: Plasma kinetics of TMC278 in beagle dogs after single intramuscular administration
Assay type: in vivo
Details: single IM 2.5 mg/kg, aqueous 30% DMA/50% PEG400 solution; for half-life / Cmax / Tmax / AUC(0-t): im; for AUC(0-t): read-out: AUC0-312 h; for concentration at 0 h: 0 h (predose); for concentration at 0.5 h: 0.5 h after dose; for concentration at 1 h: 1 h after dose; for concentration at 2 h: 2 h after dose; for concentration at 4 h: 4 h after dose; for concentration at 8 h: 8 h after dose; for concentration at 24 h: 24 h after dose; for concentration at 32 h: 32 h after dose; for concentration at 48 h: 48 h after dose; for concentration at 72 h: 72 h after dose; for concentration at 96 h: 96 h after dose; for concentration at 144 h: 144 h after dose; for concentration at 192 h: 192 h after dose; for concentration at 240 h: 240 h after dose; for concentration at 312 h: 312 h after dose; for concentration at 36 day: day 36; for concentration at 50 day: day 50; for concentration at 64 day: day 64; for concentration at 78 day: day 78; for concentration at 92 day: day 92; for concentration at 106 day: day 106; for concentration at 120 day: day 120; for concentration at 134 day: day 134; for concentration at 148 day: day 148
Procedure: The present study was performed in order to study the plasma kinetics and the absolute bioavailability of TMC278 in beagle dogs after single intramuscular administration (IM) of an aqueous 30% dimethylacetamide (DMA)/50% polyethylene glycol 400 (PEG400) solution of TMC278 at 2.5 mg/kg. The dogs were dosed IM.
Two male beagle dogs (dog No. 16924 and 16854), approximately 3 years old and weighing between 11 and 12 kg at the start of the experimental phase, were used in the present experiment. The dogs were dosed intramuscularly at 0.1 ml/kg body weight by injecting the formulation in the left (dog No. 16924) or right (dog No. 16854) m. biceps femoris.
One day before dose administration, TMC278 was formulated in an aqueous 30% (w/v) DMA/50% (w/v) PEG400 solution at 25 mg/ml. The ingredients of the solution were: TMC278, DMA 30% (w/v), PEG 400 50% (w/v) and pyrogenic free water. The content of TMC278 in the formulation was checked using LC. The concentration of TMC278 in the formulation was 25 mg/ml.
Blood samples (4 ml on EDTA) were taken from a jugular vein from the dogs at 0 (=predose), 0.5, 1, 2, 4, 8, 24, 32, 48, 72, 96, 144, 192, 240 and 312 h after dose administration. After sampling, the blood samples were immediately placed on melting ice and protected from light. Blood samples were centrifuged at approximately 1900×g for 10 minutes at 5° C. to allow plasma separation. Immediately after separation, plasma samples were protected from light, placed on melting ice and stored at ≤−18° C. until analysis. Frozen plasma samples were transferred to the Bioanalytical Department. Since TMC278 was still detectable in the plasma samples at 312 h post-dose, additional blood samples of both dogs were collected on the days 36, 50, 64, 78, 92, 106, 120, 134 and 148. These samples were analogously processed and analysed.
The concentration of TMC278 in dog plasma was determined by a qualified research LC-MS/MS method after solid phase extraction (SPE). Plasma concentrations of TMC278 were determined after proper sample clean up. The samples (0.1 ml aliquots of plasma) were extracted using a solid phase extraction method (Bond Elut Certify solid phase columns, 130 mg, SPE, Varian). The SPE column was conditioned with 3 ml methanol, 3 ml water and 1 ml acetic acid 1 M.
After addition of 3 ml acetic acid to 0.1 ml aliquots of plasma, the samples were extracted on the column followed by washing the column with 1 ml water, 1 ml acetic acid 1 M and 3 ml methanol. The column was eluted with 3 ml methanol/NH4OH 25% (98:2, v/v). The extract was evaporated to dryness and reconstituted in 150 μl of ammonium formate 0.01 M (adjusted to pH 4 with formic acid)/methanol (50/50). 20 μl-aliquots were injected onto a reversed phase LC-column (100×4.6 mm ID, packed with 3 μm Hypersil C18 BDS) with a flow of 800 μl/min. The elution mixture was ammonium formate 0.01 M (adjusted to pH 4 with formic acid)/methanol (40:60, v/v). The flow-rate to the mass spectrometer was about 100 μl/min after splitting. LC-MS/MS analysis was carried out on an API-3000 system (Applied Biosystems), which was coupled to an HPLC-system.
Individual plasma concentration-time profiles were subjected to a non-compartmental pharmacokinetic analysis. Peak plasma concentrations (Cmax) and corresponding peak times (Tmax) were determined. The AUC from time 0 to time t (AUC0-t, where t is the time point associated with the last measurable concentration above the limit of quantification) was calculated by means of the linear/log trapezoidal rule: i.e. linear trapezoidal rule up to Tmax: AUC0-Tmax=Σ[(ti+1−ti). (Ci+Ci+1)/2], and log trapezoidal for the remainder of the curve: AUCTmax-t=Σ[(ti+1−ti). (Ci−Ci+1)/ln(Ci/Ci+1)], Ci and Ci+1 being the plasma concentrations at times ti and ti+1, respectively. […]

[1] = male, beagle, dog, plasma, 2.5 mg/kg, dog No. 16854
[2] = male, beagle, dog, plasma, 2.5 mg/kg, dog No. 16924
[3] = male, beagle, dog, plasma, 2.5 mg/kg, mean (n=2)
[4] = male, beagle, dog, plasma, intramuscular, 2.5 mg/kg, dog No. 16854
[5] = male, beagle, dog, plasma, intramuscular, 2.5 mg/kg, dog No. 16854, read-out: plasma concentration during the wash-out period
[6] = male, beagle, dog, plasma, intramuscular, 2.5 mg/kg, dog No. 16924
[7] = male, beagle, dog, plasma, intramuscular, 2.5 mg/kg, dog No. 16924, read-out: plasma concentration during the wash-out period
[8] = male, beagle, dog, plasma, intramuscular, 2.5 mg/kg, mean (n=2)
[9] = male, beagle, dog, plasma, intramuscular, 2.5 mg/kg, mean (n=2), read-out: plasma concentration during the wash-out period

plasma levels during the wash-out period (range) (both dogs, days 36 to 148): 1.24 to 4.23 ng/mL
plasma concentration during the wash-out period (dog No. 16924, day 272): <1.00 ng/mL
half-life (male, beagle, dog, plasma, 2.5 mg/kg, dog No. 16854, half-life between 8 h and 24 h, read-out: t1/2, 8-24 h (converted)): 8.9 h
Cmax [1]: 39.9 ng/mL
Tmax [1]: 8 h
AUC(0-t) [1]: 2120 ng·h/mL
half-life (male, beagle, dog, plasma, 2.5 mg/kg, dog No. 16854, read-out: t1/2, 24-72 h (converted)): 75.2 h
half-life (male, beagle, dog, plasma, 2.5 mg/kg, dog No. 16924, half-life between 1 h and 24 h, read-out: t1/2, 1-24 h (converted)): 15.1 h
Cmax [2]: 23.8 ng/mL
Tmax [2]: 1 h
AUC(0-t) [2]: 1600 ng·h/mL
half-life (male, beagle, dog, plasma, 2.5 mg/kg, dog No. 16924, read-out: t1/2, 24-72 h (converted)): 51 h
Cmax [3]: 31.9 ng/mL
Tmax [3]: 5 h
AUC(0-t) [3]: 1860 ng·h/mL
half-life (male, beagle, dog, plasma, 2.5 mg/kg, mean (n=2), read-out: t1/2, 24-72 h (converted)): 63 h
concentration at 0 h [4]: < 1 ng/mL
concentration at 0.5 h [4]: 13.5 ng/mL
concentration at 1 h [4]: 17 ng/mL
concentration at 2 h [4]: 20.6 ng/mL
concentration at 4 h [4]: 27.2 ng/mL
concentration at 8 h [4]: 39.9 ng/mL
concentration at 24 h [4]: 11.4 ng/mL
concentration at 32 h [4]: 10.7 ng/mL
concentration at 48 h [4]: 9.03 ng/mL
concentration at 72 h [4]: 7.37 ng/mL
concentration at 96 h [4]: 6.4 ng/mL
concentration at 144 h [4]: 3.19 ng/mL
concentration at 192 h [4]: 2.8 ng/mL
concentration at 240 h [4]: 6.16 ng/mL
concentration at 312 h [4]: 4.24 ng/mL
concentration at 36 day [5]: 3.66 ng/mL
concentration at 50 day [5]: 4.1 ng/mL
concentration at 64 day [5]: 2.18 ng/mL
concentration at 78 day [5]: 2.62 ng/mL
concentration at 92 day [5]: 2.32 ng/mL
concentration at 106 day [5]: 2.02 ng/mL
concentration at 120 day [5]: 1.87 ng/mL
concentration at 134 day [5]: 1.67 ng/mL
concentration at 148 day [5]: 1.41 ng/mL
concentration at 0 h [6]: < 1 ng/mL
concentration at 0.5 h [6]: 21.3 ng/mL
concentration at 1 h [6]: 23.8 ng/mL
concentration at 2 h [6]: 20.9 ng/mL
concentration at 4 h [6]: 17.1 ng/mL
concentration at 8 h [6]: 15.1 ng/mL
concentration at 24 h [6]: 7.7 ng/mL
concentration at 32 h [6]: 6.65 ng/mL
concentration at 48 h [6]: 6.03 ng/mL
concentration at 72 h [6]: 3.9 ng/mL
concentration at 96 h [6]: 3.97 ng/mL
concentration at 144 h [6]: 3.65 ng/mL
concentration at 192 h [6]: 3.57 ng/mL
concentration at 240 h [6]: 4.38 ng/mL
concentration at 312 h [6]: 5.97 ng/mL
concentration at 36 day [7]: 3.05 ng/mL
concentration at 50 day [7]: 2.12 ng/mL
concentration at 64 day [7]: 2.42 ng/mL
concentration at 78 day [7]: 1.69 ng/mL
concentration at 92 day [7]: 2.51 ng/mL
concentration at 106 day [7]: 1.75 ng/mL
concentration at 120 day [7]: 4.23 ng/mL
concentration at 134 day [7]: 1.61 ng/mL
concentration at 148 day [7]: 1.24 ng/mL
concentration at 272 day (male, beagle, dog, plasma, intramuscular, 2.5 mg/kg, dog No. 16924, day 272, read-out: plasma concentration during the wash-out period): < 1 ng/mL
concentration at 0 h [8]: < 1 ng/mL
concentration at 0.5 h [8]: 17.4 ng/mL
concentration at 1 h [8]: 20.4 ng/mL
concentration at 2 h [8]: 20.8 ng/mL
concentration at 4 h [8]: 22.2 ng/mL
concentration at 8 h [8]: 27.5 ng/mL
concentration at 24 h [8]: 9.55 ng/mL
concentration at 32 h [8]: 8.68 ng/mL
concentration at 48 h [8]: 7.53 ng/mL
concentration at 72 h [8]: 5.64 ng/mL
concentration at 96 h [8]: 5.19 ng/mL
concentration at 144 h [8]: 3.42 ng/mL
concentration at 192 h [8]: 3.19 ng/mL
concentration at 240 h [8]: 5.27 ng/mL
concentration at 312 h [8]: 5.11 ng/mL
concentration at 36 day [9]: 3.36 ng/mL
concentration at 50 day [9]: 3.11 ng/mL
concentration at 64 day [9]: 2.3 ng/mL
concentration at 78 day [9]: 2.16 ng/mL
concentration at 92 day [9]: 2.42 ng/mL
concentration at 106 day [9]: 1.89 ng/mL
concentration at 120 day [9]: 3.05 ng/mL
concentration at 134 day [9]: 1.64 ng/mL
concentration at 148 day [9]: 1.33 ng/mL
t1/2, 24-72 h (mean (n=2)): 63.1 h
SMILES: Cc1cc(C=CC#N)cc(C)c1Nc1ccnc(Nc2ccc(C#N)cc2)n1 [TMC278, 4-[[4-[[4-(2-cyanoethenyl)-2,6-dimethylphenyl]amino]-2-pyrimidinyl]-amino]benzonitrile]
